“And” between values parts separate entries of the source, which are not always exact repeats. Equal values may be shown once. Values belong to the molecule of their own block, whether it stands above or below them. *: point of attachment. Octyl = CCCCCCCC*
Assays:
[1] = Matsumoto et al., 2001; cited from earlier work
[2] = tested on: TH neurons in the SNpc; experiment: MPTP-induced TH cell loss in the SNpc (stereology, optical fractionator); assay type: in vivo, mice
Excerpt: (§1) Control animals were given saline. Animals were sacrificed and perfused 7 days later and processed for immunohistochemistry or HPLC for dopamine (DA) and metabolites. n=8-10 for ghrelin wt and ko mice; n=6 for GHSR wt/wt, homo/wt and homo/TG.
TH cell quantification: Free floating sections were stained with TH (1:5000, Chemicon International) and visualized with DAB using standard procedures.
Unbiased stereology methods were used to quantify TH immunoreactive cells in the SNpc. Cells were visualized by a Zeiss microscope and relayed via a MicroFibre digital camera (www(dot)optronics(dot)com) to a computer where they were counted using the optical fractionator with the sophisticated Stereolnvestigator software (MicroBrightField, Williston, Vt., USA). Every fourth section was collected through the SNpc, and TH cells were counted in grids randomly positioned by the software in the outlined counting area through all optical planes, thus creating a 3 dimensional counting area.
(§2) The observation that ghrelin promotes SNpc DA neuronal function, mitochondrial respiration and number raises the possibility that ghrelin may protect nigrostriatal dopaminergic system during increased cellular stress. […] In brief, mice were treated with daily IP injections of exogenous ghrelin (10 nmols) or saline for 14 days. Mice were injected immediately before the dark phase, and food was removed overnight since calorie intake and postprandial increases in glucose and insulin can suppress the action of ghrelin (Cummings et al., 2006, Physiol Behav 89: 71-84). Both ghrelin and saline treated mice were given 3 grams of standard chow the following morning at 9 am. […] After the subsequent 7 days of treatment (saline or ghrelin), TH immunoreactive neurons were counted blind by two independent researchers using the non-biased optical fractionator on the stereology program, Stereoinvestigator.

[3] = tested on: striatal dopamine; experiment: Striatal dopamine after MPTP (HPLC); assay type: in vivo, mice; conditions: saline 14 days, MPTP on day 7
Experimental: as §1
The samples were subsequently thawed in 0.4 ml of chilled 0.1 M perchloric acid and sonicated. Aliquots were taken for protein quantification using a spectrophotometric assay. Other aliquots were centrifuged, and DA levels were measured in supernatants by high pressure liquid chromatography (HPLC) with electrochemical detection. Concentrations of DA and metabolites were expressed as ng/mg protein (mean±SEM).
as §2

[4] = Body weight gain after MPTP in ghrelin wt and ko mice; assay type: in vivo; conditions: from day 1 to day 7 after MPTP
Excerpt: as §1
Wt and ko mice treated with saline gained a similar amount of weight over the 7 days (wt saline 1.39±0.19 g vs ko saline 1.59±0.49 g).

[5] = target: growth hormone secretagogue receptor 1a (GHSR) on SNpc dopamine neurons, species of the tissue not stated for the experiment (mouse and/or rat); experiment: cell-based or functional assay

Molecule: 5-aminopentanoyl-Ser(Octyl)-Phe-Leu-aminoethylamide ({5‑aminopentanoyl}-Ser(Octyl)-Phe-Leu-aminoethylamide; also: acylation site at position 3; listed as Homo sapiens)
Ghrelin activity [1]: potent ghrelin activity

Molecule: CN1CC=C(c2ccccc2)CC1 [MPTP, 1-methyl-4-phenyl-1,2,5,6 tetrahydropyridine]
TH-immunoreactive cells in SNpc, ghrelin−/− mice ([2]; MPTP 30 mg/kg IP, 7 days, ko saline 8580±78): 3691±550 | TH-immunoreactive cells in SNpc, ghrelin+/+ mice ([2]; MPTP 30 mg/kg IP, 7 days, wt saline 9105±342): 6688±610 | TH neurons in SNpc, GHSR homo/TG (TH-only) mice ([2]; MPTP, homo/TG saline 12293±1123): 9401±743 | TH neurons in SNpc, GHSR homo/wt (null) mice ([2]; MPTP, homo/wt saline 11590±1133): 6582±636 | TH neurons in SNpc, GHSR wt/wt mice ([2]; MPTP, wt/wt saline 11902±713): 9171±765 | Dopamine cell loss compared to controls, saline treatment after MPTP lesion ([2]; saline 14 days, MPTP on day 7): 49% | Total TH neurons in SNpc, sal/MPTP ([2]; wt mice, saline 14 days, MPTP 30 mg/kg IP on day 7, sal/sal 11283±342): 5750±432 | Loss of striatal dopamine vs controls, sal/MPTP [3]: 65% | Striatal dopamine concentration, sal/MPTP ([3]; sal/sal 147.4±10.2): 51.4±2.7 ng/mg protein | Body weight gain, ghrelin ko mice ([4]; ko saline 1.59±0.49): 1.37 ± 0.15 g | Body weight gain, ghrelin wt mice ([4]; wt saline 1.39±0.19): 2.16 ± 0.10 g and 2.17 ± 0.10 g

action potential frequency of SNpc DA neurons (whole-cell current clamp, brain slices) [5]: 132 % of control
Molecule: ghrelin (unlabeled, Phoenix Pharmaceuticals) (peptide)

Source: patent US20100216706A1, “Ghrelin Protects Substantia Nigra Dopamine Neurons” (priority 2007, published 2010)
